Results on 28 compounds are retold here after patent publication US11136317B2, “NADPH oxidase 4 inhibitors” (ACTELION PHARMACEUTICALS LTD, priority 2015, dated 2021).

In general, IC50 refers to the point on the concentration scale where inhibition reaches its midpoint.

This assay concerns the target T1, human NOX4 (Homo sapiens, UniProt Q9NPH5).
T1 construct: The full-length human NOX4 (NM_016931.3) transcript was cloned; expressed in transfected cells
T1 sequence (Q9NPH5 1-578): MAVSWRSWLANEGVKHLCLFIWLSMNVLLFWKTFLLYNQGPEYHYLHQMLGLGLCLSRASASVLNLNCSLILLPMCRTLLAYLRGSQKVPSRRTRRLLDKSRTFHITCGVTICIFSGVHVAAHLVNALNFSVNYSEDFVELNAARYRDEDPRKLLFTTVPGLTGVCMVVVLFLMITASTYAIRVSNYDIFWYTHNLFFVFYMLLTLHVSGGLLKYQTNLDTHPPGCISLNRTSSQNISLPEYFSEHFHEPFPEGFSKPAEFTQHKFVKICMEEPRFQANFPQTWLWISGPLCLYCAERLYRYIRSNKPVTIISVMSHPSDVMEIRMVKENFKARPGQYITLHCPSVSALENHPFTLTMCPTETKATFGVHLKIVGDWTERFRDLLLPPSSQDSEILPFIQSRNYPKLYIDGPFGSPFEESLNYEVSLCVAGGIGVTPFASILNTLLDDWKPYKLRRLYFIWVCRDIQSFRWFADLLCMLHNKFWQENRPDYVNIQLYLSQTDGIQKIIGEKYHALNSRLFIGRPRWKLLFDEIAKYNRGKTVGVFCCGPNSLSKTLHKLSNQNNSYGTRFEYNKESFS
T1 sequence (P13498 1-195 partner): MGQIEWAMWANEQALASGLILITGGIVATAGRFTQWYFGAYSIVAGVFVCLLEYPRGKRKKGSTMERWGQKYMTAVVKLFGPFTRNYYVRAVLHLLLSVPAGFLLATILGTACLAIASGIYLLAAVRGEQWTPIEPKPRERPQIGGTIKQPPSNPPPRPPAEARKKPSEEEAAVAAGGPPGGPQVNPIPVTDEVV
Nature of the assay: Amplex Red activity assay (cellular H2O2 formation in hNOX4 T-REx-293 cells). It is filed as cell-based. The note with it: tet-induced 24 h, extracellular H2O2 by Amplex Red, 60 min 25° C., geometric mean if determined several times. The method in brief:
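Tet-induced (1 μg/mL, 24 h) HEK293 T-REx cells stably expressing full-length human NOX4, 20 000 cells/well, exposed to compounds (10 concentrations, 50 μM to 100 nM; 1.25% DMSO) for 60 min at 25°C. Extracellular H2O2 detected by Amplex Red resorufin fluorescence (ex 550/em 600 nm) versus vehicle; IC50 calculated.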

With `O=C(Nc1ccc2oc(N(C3CC3)C3COC3)nc2c1)c1ccc2c(c1)OCO2` [Example 138, Benzo[1,3]dioxole-5-carboxylic acid [2-(cyclopropyl-oxetan-3-yl-amino)-benzooxazol-5-yl]-amide], the IC50 came out at 1.48 µM.

As for `CCN(CC)c1nc2cc(NC(=O)c3ccc4c(c3)OCO4)ccc2o1` [Example 139, Benzo[1,3]dioxole-5-carboxylic acid (2-diethylamino-benzooxazol-5-yl)-amide], the IC50 worked out at 1.09 µM.

Take `O=C(Nc1ccc2oc(N3CC(O)C3)nc2c1)c1ccc2c(c1)CCCO2` [Example 140, Chroman-6-carboxylic acid [2-(3-hydroxy-azetidin-1-yl)-benzooxazol-5-yl]-amide]: the IC50 worked out at 2.52 µM.

For the compound `O=C(Nc1ccc2oc(N3CC(F)(F)C3)nc2c1)c1ccc2c(c1)CCCO2` [Example 141, Chroman-6-carboxylic acid [2-(3,3-difluoro-azetidin-1-yl)-benzooxazol-5-yl]-amide], the half-inhibitory concentration (IC50) came out at 10.6 µM.

For the compound `O=C(Nc1ccc2oc(N3CCC34CCC4)nc2c1)c1ccc2c(c1)CCCO2` [Example 142, Chroman-6-carboxylic acid [2-(1-aza-spiro[3.3]hept-1-yl)-benzooxazol-5-yl]-amide], the half-maximal inhibitory concentration (IC50) came out at 0.891 µM.

For the compound `O=C(Nc1ccc2oc(N3CCC34COC4)nc2c1)c1ccc2c(c1)CCCO2` [Example 143, Chroman-6-carboxylic acid [2-(6-oxa-1-aza-spiro[3.3]hept-1-yl)-benzooxazol-5-yl]-amide], the IC50 was 0.681 µM.

Take `O=C(Nc1ccc2oc(N3CCC34CCOC4)nc2c1)c1ccc2c(c1)CCCO2` (stereo not shown) [Example 144, Chroman-6-carboxylic acid [2-(6-oxa-1-aza-spiro[3.4]oct-1-yl)-benzooxazol-5-yl]-amide]: the concentration for half-maximal inhibition (IC50) was 1.54 µM.

Turning to `O=C(Nc1ccc2oc(N3CCC34CCOCC4)nc2c1)c1ccc2c(c1)CCCO2` [Example 145, Chroman-6-carboxylic acid [2-(7-oxa-1-aza-spiro[3.5]non-1-yl)-benzooxazol-5-yl]-amide], the IC50 is 1.4 µM.

On to `O=C(Nc1ccc2oc(N3CCCC3)nc2c1)c1ccc2c(c1)CCCO2` [Example 146, Chroman-6-carboxylic acid (2-pyrrolidin-1-yl-benzooxazol-5-yl)-amide], for which the IC50 was found to be 3.18 µM.

Regarding `O=C(Nc1ccc2oc(N3CCCC34COC4)nc2c1)c1ccc2c(c1)CCCO2` [Example 147, Chroman-6-carboxylic acid [2-(2-oxa-5-aza-spiro[3.4]oct-5-yl)-benzooxazol-5-yl]-amide], the IC50 was 0.379 µM.

As for `O=C(Nc1ccc2oc(N3CCCCC3)nc2c1)c1ccc2c(c1)CCCO2` [Example 148, Chroman-6-carboxylic acid (2-piperidin-1-yl-benzooxazol-5-yl)-amide], the IC50 came to 1.88 µM.

Take `O=C(Nc1ccc2oc(N3CCC(F)(F)CC3)nc2c1)c1ccc2c(c1)CCCO2` [Example 149, Chroman-6-carboxylic acid [2-(4,4-difluoro-piperidin-1-yl)-benzooxazol-5-yl]-amide]: the IC50 worked out at 1.43 µM.

`O=C(Nc1ccc2oc(N3CCCC(F)(F)C3)nc2c1)c1ccc2c(c1)CCCO2` [Example 150, Chroman-6-carboxylic acid [2-(3,3-difluoro-piperidin-1-yl)-benzooxazol-5-yl]-amide]: the IC50 was 2.2 µM.

In the case of `O=C(Nc1ccc2oc(N3CCC(O)CC3)nc2c1)c1ccc2c(c1)CCCO2` [Example 151, Chroman-6-carboxylic acid [2-(4-hydroxy-piperidin-1-yl)-benzooxazol-5-yl]-amide], the IC50 came out at 1.41 µM.

For `COC1CCN(c2nc3cc(NC(=O)c4ccc5c(c4)CCCO5)ccc3o2)CC1` [Example 152, Chroman-6-carboxylic acid [2-(4-methoxy-piperidin-1-yl)-benzooxazol-5-yl]-amide], the IC50 was 1.35 µM.

On to `O=C(Nc1ccc2oc(N3CCC4(CC3)COC4)nc2c1)c1ccc2c(c1)CCCO2` [Example 153, Chroman-6-carboxylic acid [2-(2-oxa-7-aza-spiro[3.5]non-7-yl)-benzooxazol-5-yl]-amide], for which the half-inhibitory concentration (IC50) is 1.3 µM.

With `O=C(Nc1ccc2oc(N3CCCC4(COC4)C3)nc2c1)c1ccc2c(c1)CCCO2` [Example 154, Chroman-6-carboxylic acid [2-(2-oxa-6-aza-spiro[3.5]non-6-yl)-benzooxazol-5-yl]-amide], the half-maximal inhibitory concentration (IC50) amounted to 1.13 µM.

In the case of `O=C(Nc1ccc2oc(N3CCOCC3)nc2c1)c1ccc2c(c1)CCCO2` [Example 155, Chroman-6-carboxylic acid (2-morpholin-4-yl-benzooxazol-5-yl)-amide], the IC50 stood at 0.756 µM.

`CN1CCN(c2nc3cc(NC(=O)c4ccc5c(c4)CCCO5)ccc3o2)CC1` [Example 156, Chroman-6-carboxylic acid [2-(4-methyl-piperazin-1-yl)-benzooxazol-5-yl]-amide]: the IC50 was 1.79 µM.

In the case of `CCN(CC)c1nc2cc(NC(=O)c3ccc4c(c3)CCCO4)ccc2o1` [Example 157, Chroman-6-carboxylic acid (2-diethylamino-benzooxazol-5-yl)-amide], the IC50 worked out at 2.03 µM.

`O=C(Nc1ccc2oc(N(C3CC3)C3COC3)nc2c1)c1ccc2c(c1)CCCO2` [Example 158, Chroman-6-carboxylic acid [2-(cyclopropyl-oxetan-3-yl-amino)-benzooxazol-5-yl]-amide]: the IC50 came to 2.86 µM.

Consider `O=C(Nc1ccc2oc(N3CC(O)C3)nc2c1)c1ccc2c(c1)OCCO2` [Example 159, 2,3-Dihydro-benzo[1,4]dioxine-6-carboxylic acid [2-(3-hydroxy-azetidin-1-yl)-benzooxazol-5-yl]-amide], for which the IC50 was determined as 1.48 µM.

Consider `O=C(Nc1ccc2oc(N3CCC34COC4)nc2c1)c1ccc2c(c1)OCCO2` [Example 160, 2,3-Dihydro-benzo[1,4]dioxine-6-carboxylic acid [2-(6-oxa-1-aza-spiro[3.3]hept-1-yl)-benzooxazol-5-yl]-amide], for which the IC50 was found to be 0.541 µM.

Take `O=C(Nc1ccc2oc(N3CCC34CCC4)nc2c1)c1ccc2c(c1)OCCO2` [Example 161, 2,3-Dihydro-benzo[1,4]dioxine-6-carboxylic acid [2-(1-aza-spiro[3.3]hept-1-yl)-benzooxazol-5-yl]-amide]: the IC50 was determined as 0.665 µM.

In the case of `O=C(Nc1ccc2oc(N3CCC34CCOC4)nc2c1)c1ccc2c(c1)OCCO2` (stereo not shown) [Example 162, 2,3-Dihydro-benzo[1,4]dioxine-6-carboxylic acid [2-(6-oxa-1-aza-spiro[3.4]oct-1-yl)-benzooxazol-5-yl]-amide], the IC50 amounted to 0.954 µM.

For `O=C(Nc1ccc2oc(N3CCC34CCOCC4)nc2c1)c1ccc2c(c1)OCCO2` [Example 163, 2,3-Dihydro-benzo[1,4]dioxine-6-carboxylic acid [2-(7-oxa-1-aza-spiro[3.5]non-1-yl)-benzooxazol-5-yl]-amide], the IC50 came to 1.14 µM.

`O=C(Nc1ccc2oc(N3CCCC3)nc2c1)c1ccc2c(c1)OCCO2` [Example 164, 2,3-Dihydro-benzo[1,4]dioxine-6-carboxylic acid (2-pyrrolidin-1-yl-benzooxazol-5-yl)-amide]: the concentration for half-maximal inhibition (IC50) was determined as 1.28 µM.

As to `O=C(Nc1ccc2oc(N3CCCC34COC4)nc2c1)c1ccc2c(c1)OCCO2` [Example 165, 2,3-Dihydro-benzo[1,4]dioxine-6-carboxylic acid [2-(2-oxa-5-aza-spiro[3.4]oct-5-yl)-benzooxazol-5-yl]-amide], the IC50 was 0.764 µM.
